Assay results published in the OPERA property sets (Mansouri et al. 2018).

Row | logP | SMILES
1 | 2.7 | CCOc1ccc2cc(O)c(O)cc2c1
2 | 3.82 | CCCCC=Cc1ccc(O)c(O)c1
3 | 2.61 | CCCC(=O)C=Cc1ccc(O)c(O)c1
4 | 2.71 | CCCCCCNC(=O)c1ccc(O)c(O)c1
5 | 1.99 | COc1ccc(CNC(=O)C=Cc2ccc(O)c(O)c2)cc1OC
6 | 3.37 | CCCCCCNC(=O)C=Cc1ccc(O)c(O)c1
7 | 2.72 | O=C(C=Cc1ccc(O)c(O)c1)NCCc1ccccc1
8 | 3.25 | CCc1ccc2cc(O)c(O)cc2c1
9 | 1.67 | O=C(C=Cc1ccc(O)c(O)c1)CCCCCO
10 | 2.72 | CCCCNC(=O)c1ccc2cc(O)c(O)cc2c1
11 | 2.32 | CCCCCC(O)c1ccc(O)c(O)c1 (stereo unspecified)
12 | 2.07 | COc1ccc(CCNC(=O)C=Cc2ccc(O)c(O)c2)cc1OC
13 | 3.53 | CCCCOC(=O)/C=C/c1ccc(O)c(O)c1
14 | 2.96 | CCCCc1ccc(O)c(O)c1
15 | 2.48 | O=C(C=Cc1ccc(O)c(O)c1)NCc1ccccc1
16 | 2.3 | COc1ccc(NC(=O)C=Cc2ccc(O)c(O)c2)cc1OC
